“Also recorded” adds a separate entry of the source.
Tested on: patients with tumors harboring B-RAF or K-RAS/N-RAS mutations
Assay: Phase 1 study: tumor response by investigators using RECIST v1.1
Type: in vivo, human
Procedure: Objective response rate was defined as the proportion of patients who had confirmed CR or PR, assessed by the investigator using RECIST v1.1.
Clinical benefit rate was defined as the proportion of patients with best overall response (BOR) of confirmed CR, PR, or SD lasting ≥16 weeks.
Tumor imaging were performed within 21 days prior to the first study treatment. Results of standard of care tests or examinations performed prior to obtaining informed consent and ≤21 days prior to the first administration of IMP may be used for the purposes of screening rather than repeating the standard of care tests. During the study, tumor imaging was performed approximately every 8 (±1) weeks in the first year and approximately every 12 (±1) weeks thereafter. Tumor assessments were required to be performed on schedule regardless of whether study treatment has been administered or held.
Tumor response was assessed by the investigators using RECIST v1.1. The same evaluator should perform assessments, if possible, to ensure internal consistency across visits.
For the analysis of ORR, DCR, and CBR, summary tables presenting the number and proportion of responders with the 2-sided exact (Clopper-Pearson) 95% CI for response rates were presented. Summary of each response category of the BOR (confirmed CR, confirmed PR, unconfirmed CR, unconfirmed PR, SD, or PD) were presented as well. Waterfall plots of maximum tumor shrinkage per patient were presented.
Treatment emergent adverse events (TEAEs) were graded per NCI CTCAE v5.0. Tumor responses were assessed by investigators using RECIST v1.1.

**Q.** For `O=C1CCc2c(Oc3ccc4c(c3)[C@H]3[C@H](NC(=O)Nc5cc(F)c(F)cc5F)[C@H]3O4)ccnc2N1` [Compound A, 1-((1S,1aS,6bS)-5-((7-oxo-5,6,7,8-tetrahydro-1,8-naphthyridin-4-yl)oxy)-1a,6b-dihydro-1H-cyclopropa[b]benzofuran-1-yl)-3-(2,4,5-trifluorophenyl)urea], which clinical benefit rate (33 efficacy evaluable patients) is on record?
**A.** 42%

**Q.** What about the disease control rate (33 efficacy evaluable patients) of the same molecule?
**A.** 79%

**Q.** What about the objective response rate (33 efficacy evaluable patients) of the same molecule?
**A.** 18%

**Q.** And the Objective responders (BRAF K601E/PIK3CA endometrial cancer)?
**A.** 1

**Q.** What about the Objective responders (BRAF V600E LGSOC) of the same molecule?
**A.** 1

**Q.** And the Objective responders (BRAF V600E cholangiocarcinoma)?
**A.** 1

**Q.** And the Objective responders (BRAF V600E melanoma pts who progressed on prior BRAF/MEK and checkpoint inhibitors (1 CR, 1 PR))?
**A.** 2

**Q.** And the “Patients evaluable for tumor response with PR at Week 8” value (Cohort 5 (40 mg QD))?
**A.** 2 patients

**Q.** What about the “CRC patients with stable disease” value (FIG. 1, 2/2 CRC patients) of the same molecule?
**A.** 100%

**Q.** What about the “responders that have melanoma” value (FIG. 1, 4/5 responders) of the same molecule?
**A.** 80%

**Q.** What about the overall response rate (FIG. 1, 5/22 evaluable patients) of the same molecule?
**A.** 22.7%

**Q.** And the “melanoma patients with stable disease, partial responses, or complete responses” value (FIG. 1, 7/7 melanoma patients)?
**A.** 100%

**Q.** And the “melanoma patients with partial responses” value (FIG. 1, of 7 melanoma patients)?
**A.** 3

**Q.** What about the “melanoma patients with stable disease” value (FIG. 1, of 7 melanoma patients) of the same molecule?
**A.** 3

**Q.** And the “melanoma patients with complete responses” value (FIG. 1, of 7 melanoma patients, 1 CT readout)?
**A.** 1

**Q.** What about the Objective responders (KRAS G12D appendiceal cancer) of the same molecule?
**A.** 1

**Q.** And the Objective responders (NRAS G12S melanoma)?
**A.** 1

**Q.** And the Objective responders (NRAS Q61K melanoma)?
**A.** 1

**Q.** What about the confirmed responses (in 33 efficacy evaluable patients) of the same molecule?
**A.** 6

**Q.** What about the complete response (number of patients, 33 efficacy evaluable) of the same molecule?
**A.** one

**Q.** What about the CR (number of pts, 42 pts) of the same molecule?
**A.** 1

**Q.** What about the “SD≥24 weeks” value (number of pts, 42 pts) of the same molecule?
**A.** 8

**Q.** What about the cPR (number of pts, 42 pts) of the same molecule?
**A.** 5

**Q.** And the uPR (number of pts, 42 pts)?
**A.** 2

**Q.** What about the Antitumor activity (pts with no approved targeted therapy options / heavily pretreated patients) of the same molecule?
**A.** Antitumor activity was observed; also recorded: encouraging anti-tumor activity was observed

From patent publication US20250090507A1, “Methods of Treating Cancer With a B-RAF Inhibitor” (MapKure, LLC, priority 2022, published 2025)
